Assay results taken from paper PMC4615156 (Nucleus, 2014).

Biological target: PCNA (Homo sapiens, UniProt P12004)
Assay: Fixation of live cells labeled with the cell-permeable PIP
Type: cell-based
Conditions: PCNA expressing cells labeled live, then 3.7% formaldehyde

PCNA, sequence (P12004 whole entry): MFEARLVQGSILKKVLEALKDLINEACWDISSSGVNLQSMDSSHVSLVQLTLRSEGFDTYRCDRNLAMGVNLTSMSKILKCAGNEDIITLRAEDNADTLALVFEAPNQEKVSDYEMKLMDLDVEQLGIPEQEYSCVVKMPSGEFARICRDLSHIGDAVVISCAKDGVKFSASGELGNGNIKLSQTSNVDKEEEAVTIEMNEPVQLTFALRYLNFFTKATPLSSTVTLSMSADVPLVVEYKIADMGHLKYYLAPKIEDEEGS

Labeling of repair sites after fixation of live labeled cells: still marks repair sites
Substance: RRRQRRKKRG-C C-SAVLQKKITDYFHPKKG-EDA-TAMRA (disulfide) [TAT(-SS-)PL-R]
